Values of other authors as cited in US9072693B2 (priority 2005, dated 2015).

Experiments:
psoriatic plaques = conditions: topical (Lu et al. 1996)
women with PMS [1] = tested on: women with PMS
women with PMS [2] = conditions: higher doses once or twice during the luteal phase (Miner 2002)

C=C1/C(=C\C=C2/CCC[C@]3(C)[C@@H]([C@H](C)CCCC(C)(C)O)CC[C@@H]23)C[C@@H](O)C[C@@H]1O [Calcitriol]
effect in psoriatic plaques (psoriatic plaques): decrease keratinocyte proliferation, normalize keratinocyte differentiation and decrease immune activation in plaques

O=C([O-])[O-].[Ca+2] [calcium, calcium carbonate]
reduction of overall PMS symptoms (women with PMS [1]; a number of studies, all 4 major categories of PMS): 50% | overall reduction in total symptom scores compared to placebo (women with PMS [1]; elemental calcium 1200 mg per day as calcium carbonate, within 3 months of therapy, premenopausal women 18-45 years): 48%

C=C1CC[C@H](O)C/C1=C/C=C1\CCC[C@]2(C)[C@@H]([C@H](C)CCCC(C)C)CC[C@@H]12 [cholecalciferol]
safety (10,000 IU daily for 5 months (Heaney)): safe | daily dose at which toxicity occurs (oral ingestion, daily (Vieth R)): 40,000 IU

CNCCC(Oc1ccc(C(F)(F)F)cc1)c1ccccc1 (stereo not drawn) [fluoxetine]
effect on PMS symptomatology (women with PMS [2]): effective in reducing symptomatology
